Laboratory results taken from the NIST ThermoML archive (doi:10.1016/j.fluid.2005.06.019).
Numbers after ± are expanded uncertainties.

Columns and labels:
[1] = Liquid; for mass density: 101.33 kPa
[2] = refractive index (Na D-line) (dimensionless); details: 298.15 K; 101.33 kPa; Liquid; Standard Abbe refractometry

CCCCCCO [hexan-1-ol]
[1]
Details	mass density [kg/m3]	vapor or sublimation pressure [kPa]
298.15 K	814.85 ± 0.68	–
356.39 K	–	5 ± 0.2
364.42 K	–	7.5 ± 0.2
368.04 K	–	8.9 ± 0.3
372.23 K	–	10.9 ± 0.3
376.68 K	–	13.4 ± 0.4
379.61 K	–	15.3 ± 0.4
384.92 K	–	19.3 ± 0.5
384.93 K	–	19.3 ± 0.5
390.31 K	–	24.2 ± 0.5
394.34 K	–	28.5 ± 0.6
398.14 K	–	33.1 ± 0.7
401.57 K	–	37.8 ± 0.8
404.56 K	–	42.3 ± 0.8
407.43 K	–	47.1 ± 0.9
410.27 K	–	52.2 ± 1
412.75 K	–	57 ± 1
414.93 K	–	61.5 ± 1.1
417.18 K	–	66.4 ± 1.2
417.28 K	–	66.7 ± 1.2
419.52 K	–	71.9 ± 1.2
421.96 K	–	78 ± 1.3
424.54 K	–	84.8 ± 1.4
426.31 K	–	89.8 ± 1.5
428.2 K	–	95.3 ± 1.5
429.97 K	–	100.8 ± 1.6
430 K	–	101.5 ± 1.8
430.06 K	–	101.3 ± 1.6
430.26 K	–	101.7 ± 1.6

Details	refractive index
[2]	1.4162 ± 0.0008

CC(C)CO [2-methyl-1-propanol]
[1]
Details	mass density [kg/m3]	vapor or sublimation pressure [kPa]
298.15 K	797.83 ± 0.61	–
381.09 K	–	101.3 ± 0.3

Details	refractive index
[2]	1.3937 ± 0.0007

CC(=O)OCC(C)C [2-methylpropyl ethanoate]
[1]
Details	mass density [kg/m3]	vapor or sublimation pressure [kPa]
293.15 K	866.12 ± 0.62	–
389.9 K	–	101.3 ± 0.3

Details	refractive index
[2]	1.3876 ± 0.0008
